Values quoted from earlier work, collected in patent US10251778B2, “Therapeutics dispensing device and methods of making same” (Baylor College of Medicine, priority 2012, dated 2019).
Structures can show the parent of a compound that is named as a salt. Each block holds one compound with its values, some of them ahead of it.

Columns and labels:
[1] = test system: human cytomegalovirus (HCMV); settings: Albumin Nanoparticles
[2] = in vitro
[3] = not given; remark: listed apart in the source
[4] = Acrylate Polymer Nanosuspensions
[5] = Poly(butyl)-cyano acrylate Nanopartilces

Compound: CC[C@@H]1C(=O)OC[C@@H]1Cc1cncn1C [Pilocarpine HCl]
Result (response and ocular bioavailability) (Liposomes): Increased mitotic response and ocular

Compound: Nc1nc2c(ncn2COC(CO)CO)c(=O)[nH]1 [GCV]
Result (antiviral activity) [1]: Increased antiviral aciivity against human

transcorneal penetration relative to the ionized form [2]: 2-3 times
Compound: CC[C@@H]1C(=O)OC[C@@H]1Cc1cncn1C [pilocarpine base, pilocarpine]

Compound: CC[C@@H]1C(=O)OC[C@@H]1Cc1cncn1C [Pilocarpine]
Decreased IOP ([3]; Microemulsions): Decreased IOP by 25%
decrease in IOP [3, 5]: in IOP by 22%
Result (response) [5]: Enhanced mitotic response and decrease

Result (drug levels in aqueous humour) [4]: Increased drug levels in aqueous humour
Compound: CC(C(=O)O)c1ccc(-c2ccccc2)c(F)c1 (stereo not drawn) [Flurbiprofen]

Compound: CC[C@@H]1C(=O)OC[C@@H]1Cc1cncn1C [Pilocarpine nitrate]
Result (miotic activity) (Dendrimers): Prolonged miotic activity

Compound: CC(=O)Nc1nnc(S(N)(=O)=O)s1 [Acetazolamide]
Result (IOP) ([3]; Liposomes): Produced a marked decrease in IOP
